Measurements as given in US6127339A, “Peptide for binding thereto a low density lipoprotein” (Asahi Kasei Kogyo Kabushiki Kaisha, priority 1995, dated 2000).
No end group written: not given here.

Key:
LDL [1] = test: BIAcore affinity of immobilized peptide to LDL in HBS buffer; assay type: binding; settings: 6-minute injection, based on the immobilized amount of RRWFW-CONH2 as standard
Text: (§1) Further, the binding ability (affinity) of the adsorbent for an LDL can also be determined by using BIAcore (manufactured and sold by Pharmacia Biosensor AB, Sweden), in accordance with the instructions given in a manual attached to BIAcore. Specifically, the binding ability of the adsorbent for an LDL can also be determined by a method in which the peptide is immobilized on a sensor chip of the BIAcore, and a solution containing LDL, such as plasma, is flowed over the sensor chip.
Twenty-six different peptides and four different comparative peptides (which are all shown in Table 11; wherein for Example 11, Sample Nos. 1, 4 and 5-26 are SEQ ID NOS:35, 89 and 36-57, respectively, and wherein for Comparative Example 8, Sample Nos. 1, 2, 3 and 4 are SEQ ID NOS:86, 87, 90 and 88, respectively) were prepared in substantially the same manner as in Example 7. […]
The affinity of the peptide to the LDL contained in HBS buffer was measured using the above-mentioned BIAcore (provided with the sensor chip having the peptide immobilized thereon) as follows. […] However, since the amounts of the peptides immobilized on the sensor chip vary depending on the types of the peptides, the amount of a peptide of RRWFW-CONH2 immobilized on the sensor chip was taken as a standard amount and the affinities of various tested peptides were determined, based on the above standard amount.

LDL [2] = test: BIAcore affinity of immobilized peptide to LDL in plasma; assay type: binding; settings: plasma containing 1 mg/ml LDL versus LDL-free plasma; based on the immobilized amount of RRWFW-CONH2 as standard
Text: as §1
Twenty-seven different peptides and four different comparative peptides (which are all shown in Table 12, wherein for Example 12, Sample Nos. 12-15 are SEQ ID NOS:12-15, respectively) were prepared in substantially the same manner as in Example 7. Each of the obtained peptides was individually dissolved in a 10 mM acetate buffer (pH: 5.5) to thereby obtain peptide solutions each having a peptide concentration of […]. […]
The affinity of the peptide to the LDL in plasma was measured using the above-mentioned BIAcore (provided with the sensor chip having the peptide immobilized thereon) as follows. […]

| Substance | Affinity to LDL (RU) (LDL [1]) | Affinity to LDL (RU) (LDL [2]) |
| --- | --- | --- |
| DPSVY-CONH2 (DPSVY-NH2) | 310 | 250 |
| EMEEV-CONH2 (EMEEV-NH2) | 730 | 270 |
